Reference: PubChem BioAssay (NCI)
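A five-concentration, 48-hour dose response in 96-well plates underlies each endpoint, interpolated linearly between surrounding concentrations. At the GI50, growth is halved. TGI denotes the concentration required for complete inhibition of growth.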

Columns and labels:
Experiment in all cases: NCI tumour cell line growth inhibition, 48 h
OVCAR-5 ovarian = system: OVCAR-5 ovarian
NCI-H23 lung = system: NCI-H23 lung
HL-60(TB) leukemia = system: HL-60(TB) leukemia
MALME-3M melanoma = system: MALME-3M melanoma
LOX IMVI melanoma = system: LOX IMVI melanoma
SR leukemia = system: SR leukemia
UACC-62 melanoma = system: UACC-62 melanoma
HT29 colon = system: HT29 colon
RPMI-8226 leukemia = system: RPMI-8226 leukemia
HOP-92 NSCLC = system: HOP-92 NSCLC

SMILES	TGI (OVCAR-5 ovarian) [µM]	TGI (NCI-H23 lung) [µM]	TGI (HL-60(TB) leukemia) [µM]	TGI (MALME-3M melanoma) [µM]	TGI (LOX IMVI melanoma) [µM]	TGI (SR leukemia) [µM]	TGI (UACC-62 melanoma) [µM]	TGI (HT29 colon) [µM]	TGI (RPMI-8226 leukemia) [µM]	TGI (HOP-92 NSCLC) [µM]	GI50 (OVCAR-5 ovarian) [µM]	GI50 (NCI-H23 lung) [µM]	GI50 (MALME-3M melanoma) [µM]	GI50 (LOX IMVI melanoma) [µM]	GI50 (RPMI-8226 leukemia) [µM]	GI50 (SR leukemia) [µM]	GI50 (UACC-62 melanoma) [µM]	GI50 (HT29 colon) [µM]
Cc1ccc(Nc2nc(C)c(C(/C=C/c3ccc4c(c3)OCO4)=N/Nc3ccc([N+](=O)[O-])cc3[N+](=O)[O-])s2)c([N+](=O)[O-])c1	> 100	> 100	95	> 100	> 100	> 100	17.8	> 100	–	–	–	–	–	–	–	–	–	–
O=C1NC(c2ccccc2)N=C2Oc3ccccc3C=C12 (centres undefined)	> 100	> 100	–	> 100	> 31.6	> 100	> 100	> 23.6	> 100	> 100	–	–	–	–	–	–	–	–
COc1ccc(OC)c(/C=N/N=C2\C(=O)Nc3c(Cl)cc(Cl)cc32)c1	> 100	> 100	> 100	> 100	> 100	> 100	> 100	> 100	–	> 100	–	–	–	–	–	–	–	–
COC1OC(C(C)O)C2OC(C)(C)OC12 (centres undefined)	> 100	> 100	> 100	–	> 100	> 100	> 100	> 100	> 100	–	–	–	–	–	–	–	–	–
NS(=O)(=O)c1ccc(N2N=C(c3cccs3)CC2c2ccccc2O)cc1 (centres undefined)	6.11	8.47	–	13.5	5.22	> 33.3	5.09	2.39	5.29	–	1.25	1.3	4.81	1.25	1.16	1.36	1.15	0.897
O=C(O)c1cc(=O)c2cc(C(=O)c3cccs3)c(Cl)c(Cl)c2o1	> 100	> 100	> 100	> 100	–	> 100	> 100	> 100	> 100	> 100	–	–	–	–	–	–	–	–
COC1(Cc2ccccc2)C(=O)c2ccccc2N1C(C)=O (centres undefined)	–	> 100	> 100	–	–	> 100	> 100	> 100	> 100	> 100	–	–	–	–	–	–	–	–
Cc1ccc([N+](=O)[O-])c2c(NCCC[N+](C)(C)[O-])ccnc12	84.3	> 100	> 100	> 100	> 100	> 100	–	> 100	> 100	> 100	–	–	–	–	–	–	–	–
O=C(NC1C=Nc2ccccc2NC1=O)c1ccccc1Cl (centres undefined)	> 100	> 100	54.1	> 100	> 100	> 100	> 100	> 100	–	> 100	–	–	–	–	–	–	–	–
